Assay [1] has as its system Escherichia coli. The assay is described as follows: Synergistic antibacterial activity against wild type Escherichia coli BW25113 assessed as levofloxacin MIC at 1 microg/ml incubated for 18 hrs in presence of colistin by broth dilution assay. The assay is classed as functional. The following applies: dose 1 µg/ml.
Assay [2] has as its system Escherichia coli. The assay is described as follows: Synergistic antibacterial activity against wild type Escherichia coli BW25113 assessed as minocycline MIC at 64 microg/ml incubated for 18 hrs by broth dilution assay. Type of assay: functional. Particulars: dose 64 µg/ml. For orientation: Broth dilution looks for growth in wells or tubes with falling amounts of substance.

Assay [3] relates to Escherichia coli. The assay is described as follows: Synergistic antibacterial activity against wild type Escherichia coli BW25113 assessed as erythromycin MIC at 1 microg/ml incubated for 18 hrs in presence of colistin by broth dilution assay. Particulars: dose 1 µg/ml. The assay is classed as functional.
Assay [4] has as its system Escherichia coli. The assay is described as follows: Synergistic antibacterial activity against wild type Escherichia coli BW25113 assessed as levofloxacin MIC at 64 microg/ml incubated for 18 hrs by broth dilution assay. The following applies: dose 64 µg/ml. The assay is classed as functional.
Assay [5] concerns Escherichia coli. The assay is described as follows: Synergistic antibacterial activity against wild type Escherichia coli BW25113 assessed as levofloxacin MIC at 0.5 microg/ml incubated for 18 hrs in presence of colistin by broth dilution assay. The assay is classed as functional. Particulars: dose 0.5 µg/ml.
Assay [6] has as its system Escherichia coli. The assay is described as follows: Synergistic antibacterial activity against wild type Escherichia coli BW25113 assessed as erythromycin MIC at 8 microg/ml incubated for 18 hrs by broth dilution assay. The assay is classed as functional. The following applies: dose 8 µg/ml.
For assay [7], the system named is Escherichia coli. The assay is described as follows: Synergistic antibacterial activity against wild type Escherichia coli BW25113 assessed as erythromycin MIC at 0.5 microg/ml incubated for 18 hrs in presence of colistin by broth dilution assay. Type of assay: functional. The following applies: dose 0.5 µg/ml.
In assay [8] the test system is Escherichia coli. The assay is described as follows: Synergistic antibacterial activity against wild type Escherichia coli BW25113 assessed as fold decrease in erythromycin MIC at 128 microg/ml incubated for 18 hrs by checkboard based microplate reader analysis. Type of assay: functional. The following applies: dose 128 µg/ml.
The subject of assay [9] is Escherichia coli. The assay is described as follows: Synergistic antibacterial activity against wild type Escherichia coli BW25113 assessed as erythromycin MIC at 2 microg/ml incubated for 18 hrs in presence of colistin by broth dilution assay. Type of assay: functional. The following applies: dose 2 µg/ml.
The test system of assay [10] is Escherichia coli. The assay is described as follows: Synergistic antibacterial activity against wild type Escherichia coli BW25113 assessed as levofloxacin MIC at 16 microg/ml incubated for 18 hrs by broth dilution assay. Particulars: dose 16 µg/ml. Type of assay: functional.
The subject of assay [11] is Escherichia coli. The assay is described as follows: Synergistic antibacterial activity against wild type Escherichia coli BW25113 assessed as minocycline MIC at 2 microg/ml incubated for 18 hrs in presence of colistin by broth dilution assay. Type of assay: functional. Particulars: dose 2 µg/ml.
Assay [12] deals with Escherichia coli. The assay is described as follows: Synergistic antibacterial activity against wild type Escherichia coli BW25113 assessed as minocycline MIC at 0.5 microg/ml incubated for 18 hrs in presence of colistin by broth dilution assay. The following applies: dose 0.5 µg/ml. Type of assay: functional.
Assay [13] deals with Escherichia coli. The assay is described as follows: Synergistic antibacterial activity against wild type Escherichia coli BW25113 assessed as fold decrease in minocycline MIC at 64 microg/ml incubated for 18 hrs by checkboard based microplate reader analysis. Particulars: dose 64 µg/ml. The assay is classed as functional.
Assay [14] relates to Escherichia coli. The assay is described as follows: Synergistic antibacterial activity against wild type Escherichia coli BW25113 assessed as levofloxacin MIC at 16 microg/ml incubated for 18 hrs in presence of colistin by broth dilution assay. Type of assay: functional. Particulars: dose 16 µg/ml.
For assay [15], the system named is Escherichia coli. The assay is described as follows: Synergistic antibacterial activity against wild type Escherichia coli BW25113 assessed as erythromycin MIC at 64 microg/ml incubated for 18 hrs in presence of colistin by broth dilution assay. Type of assay: functional. Particulars: dose 64 µg/ml.
For assay [16], the system named is Escherichia coli. The assay is described as follows: Synergistic antibacterial activity against wild type Escherichia coli BW25113 assessed as levofloxacin MIC at 128 microg/ml incubated for 18 hrs in presence of colistin by broth dilution assay. The assay is classed as functional. The following applies: dose 128 µg/ml.
In assay [17] the test system is Escherichia coli. The assay is described as follows: Synergistic antibacterial activity against wild type Escherichia coli BW25113 assessed as minocycline MIC at 4 microg/ml incubated for 18 hrs in presence of colistin by broth dilution assay. The assay is classed as functional. The following applies: dose 4 µg/ml.
The test system of assay [18] is Escherichia coli. The assay is described as follows: Synergistic antibacterial activity against wild type Escherichia coli BW25113 assessed as fold decrease in levofloxacin MIC at 64 microg/ml incubated for 18 hrs by checkboard based microplate reader analysis. Type of assay: functional. Particulars: dose 64 µg/ml.
Assay [19] relates to Escherichia coli. The assay is described as follows: Synergistic antibacterial activity against wild type Escherichia coli BW25113 assessed as fold decrease in minocycline MIC at 128 microg/ml incubated for 18 hrs by checkboard based microplate reader analysis. The assay is classed as functional. Particulars: dose 128 µg/ml.
In assay [20] the test system is Escherichia coli. The assay is described as follows: Synergistic antibacterial activity against wild type Escherichia coli BW25113 assessed as fold decrease in erythromycin MIC at 16 to 64 microg/ml incubated for 18 hrs by checkboard based microplate reader analysis. Type of assay: functional. The following applies: dose 16-64 µg/ml.
Assay [21] has as its system Escherichia coli. The assay is described as follows: Synergistic antibacterial activity against wild type Escherichia coli BW25113 assessed as levofloxacin MIC at 4 microg/ml incubated for 18 hrs in presence of colistin by broth dilution assay. The following applies: dose 4 µg/ml. Type of assay: functional.
Assay [22] relates to Escherichia coli. The assay is described as follows: Synergistic antibacterial activity against wild type Escherichia coli BW25113 assessed as erythromycin MIC at 4 microg/ml incubated for 18 hrs in presence of colistin by broth dilution assay. The following applies: dose 4 µg/ml. Type of assay: functional.
The target in assay [23] is T1, Multidrug efflux pump subunit AcrB (Escherichia coli (strain K12)) (UniProt P31224).
T1 sequence (whole entry): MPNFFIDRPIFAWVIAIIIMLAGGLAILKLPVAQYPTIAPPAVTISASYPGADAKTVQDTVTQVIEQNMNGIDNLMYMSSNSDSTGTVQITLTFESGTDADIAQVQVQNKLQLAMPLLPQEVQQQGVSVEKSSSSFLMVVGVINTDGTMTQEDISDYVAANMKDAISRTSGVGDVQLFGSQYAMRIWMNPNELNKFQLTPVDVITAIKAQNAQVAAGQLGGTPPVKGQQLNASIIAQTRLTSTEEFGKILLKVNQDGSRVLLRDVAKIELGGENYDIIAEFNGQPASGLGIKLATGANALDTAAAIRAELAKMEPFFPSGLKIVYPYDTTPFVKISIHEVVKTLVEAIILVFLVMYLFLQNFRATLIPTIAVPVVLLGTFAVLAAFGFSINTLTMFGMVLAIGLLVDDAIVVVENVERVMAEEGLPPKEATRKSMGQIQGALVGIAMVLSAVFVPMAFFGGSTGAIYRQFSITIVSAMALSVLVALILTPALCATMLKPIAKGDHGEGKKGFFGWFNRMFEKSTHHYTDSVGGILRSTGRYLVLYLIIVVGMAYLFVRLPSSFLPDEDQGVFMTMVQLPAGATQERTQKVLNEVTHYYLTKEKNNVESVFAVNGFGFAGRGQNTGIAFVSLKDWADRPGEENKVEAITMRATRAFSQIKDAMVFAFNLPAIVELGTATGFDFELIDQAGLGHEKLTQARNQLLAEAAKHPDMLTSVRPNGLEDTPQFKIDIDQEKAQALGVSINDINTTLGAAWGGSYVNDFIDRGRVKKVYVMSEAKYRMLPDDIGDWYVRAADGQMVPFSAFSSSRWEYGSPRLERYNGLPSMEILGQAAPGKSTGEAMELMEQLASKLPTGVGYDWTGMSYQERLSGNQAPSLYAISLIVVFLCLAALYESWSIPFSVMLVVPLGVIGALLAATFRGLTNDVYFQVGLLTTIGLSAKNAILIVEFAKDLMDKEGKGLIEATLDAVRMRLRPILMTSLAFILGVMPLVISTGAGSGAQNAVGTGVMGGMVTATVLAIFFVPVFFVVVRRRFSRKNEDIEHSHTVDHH
The assay is described as follows: Inhibition of Escherichia coli BW25113 AcrB assessed as inhibition of nile red efflux at 200 uM incubated for 15 mins.

The subject of assay [24] is Escherichia coli. The assay is described as follows: Synergistic antibacterial activity against wild type Escherichia coli BW25113 assessed as fold decrease in erythromycin MIC at 8 microg/ml incubated for 18 hrs by checkboard based microplate reader analysis. The assay is classed as functional. The following applies: dose 8 µg/ml.

As a reminder, the MIC is the lowest concentration that inhibits growth of the organism. Usually inhibition stands for the relative decrease from the control value, in per cent.

Regarding `CC1(C)CCc2c(C(=O)N3CCOCC3)cc3c(OCCN4CCN(c5ccccc5)CC4)cccc3c2O1`, the minimum inhibitory concentration (MIC) in the assay on Escherichia coli [1] was determined as 0.032 µg/mL; in the assay on Escherichia coli [2], 2 µg/mL; in the assay with Escherichia coli [3] it was 16 µg/mL; in the assay with Escherichia coli [4], 0.016 µg/mL; in the assay on Escherichia coli [5], 0.032 µg/mL; in the assay on Escherichia coli [6] it was 32 µg/mL. For the same compound, the MIC with Escherichia coli [7] came out at 16 µg/mL; in the assay with Escherichia coli [9], 8 µg/mL; with Escherichia coli [10], 0.016 µg/mL; in the assay with Escherichia coli [11] it was 0.5 µg/mL; in the assay on Escherichia coli [12], 1 µg/mL. In the assay on Escherichia coli [8], the “fold change (FC)” value amounted to 4.

For `COc1ccc(OCCCOc2cccc3c4c(c(C(=O)N5CCOCC5)cc23)CCC(C)(C)O4)cc1`, the MIC in the assay on Escherichia coli [2] came out at 1 µg/mL; with Escherichia coli [4], 0.032 µg/mL; in the assay on Escherichia coli [6], 32 µg/mL; in the assay with Escherichia coli [14] it was 0.016 µg/mL; in the assay on Escherichia coli [10], 0.032 µg/mL; with Escherichia coli [15], 16 µg/mL. In addition, the MIC with Escherichia coli [16] worked out at 0.032 µg/mL. Further, the entries for the “fold change (FC)” value in the assay on Escherichia coli [8] and with Escherichia coli [13] were 8 and 4, respectively.

As for `CC1(C)CCc2c(C(=O)N3CCOCC3)cc3c(OCCCOc4cccc(C(=O)O)c4)cccc3c2O1`, the MIC in the assay with Escherichia coli [2] came out at 1 µg/mL; in the assay on Escherichia coli [4] it was 0.016 µg/mL; in the assay on Escherichia coli [6], 32 µg/mL; in the assay with Escherichia coli [14] it was 0.016 µg/mL; in the assay with Escherichia coli [17], 0.5 µg/mL; in the assay on Escherichia coli [10], 0.016 µg/mL. Also, the MIC with Escherichia coli [15] is 4 µg/mL; with Escherichia coli [21], 0.032 µg/mL. Moreover, the “fold change (FC)” value in the assay with Escherichia coli [18], in the assay with Escherichia coli [19] and with Escherichia coli [20] was 4 each time.

Consider `CC1(C)CCc2c(C(=O)N3CCOCC3)cc3c(OCCSc4ccc([N+](=O)[O-])cc4)cccc3c2O1`, for which the MIC worked out at 1 µg/mL in the assay with Escherichia coli [2]; 0.016 µg/mL in the assay on Escherichia coli [4]; 16 µg/mL in the assay on Escherichia coli [6]; 8 µg/mL in the assay with Escherichia coli [22]; 0.032 µg/mL with Escherichia coli [14]; 1 µg/mL in the assay on Escherichia coli [17]. For the same compound, the MIC was found to be 0.032 µg/mL in the assay with Escherichia coli [10], 4 µg/mL in the assay with Escherichia coli [15] and 0.032 µg/mL with Escherichia coli [21]. Also, the inhibition in assay [23] was 100%. In the assay with Escherichia coli [24], the “fold change (FC)” value is 4.

The values are drawn from ChEMBL document CHEMBL5346892, “Design and synthesis of benzochromene derivatives as AcrB inhibitors for the reversal of bacterial multidrug resistance” (Eur J Med Chem, 2023).
